ChEMBL document CHEMBL5584236, “Development of novel bisphenol derivatives with a membrane-targeting mechanism as potent gram-positive antibacterial agents” (Eur J Med Chem, 2024)

Experiments:
Staphylococcus aureus [1] = test: Antibacterial activity against methicillin-resistant Staphylococcus aureus N315 assessed as reduction in microbial growth incubated for 22 to 24 hrs by CLSI based broth microdilution method; format: functional; details: time 22-24 hrs
Escherichia coli = test: Antibacterial activity against Escherichia coli ATCC25922 assessed as reduction in microbial growth incubated for 22 to 24 hrs by CLSI based broth microdilution method; format: functional; details: time 22-24 hrs
Staphylococcus aureus [2] = test: Antibacterial activity against methicillin-resistant Staphylococcus aureus NCTC10442 assessed as reduction in microbial growth incubated for 22 to 24 hrs by CLSI based broth microdilution method; format: functional; details: time 22-24 hrs
Staphylococcus aureus [3] = test: Antibacterial activity against Staphylococcus aureus ATCC29213 assessed as reduction in microbial growth incubated for 22 to 24 hrs by CLSI based broth microdilution method; format: functional; details: time 22-24 hrs
[4] = Hemolytic activity against rabbit RBC incubated for 1 hr by multimode plate reader; format: toxicity, cell-based, Oryctolagus cuniculus, Erythrocyte; details: rabbit red blood cells (erythrocytes)
Staphylococcus aureus [5] = test: Drug resistance, ratio of MIC for Staphylococcus aureus ATCC29213 after 13 passages to MIC for Staphylococcus aureus ATCC29213 after initial exposure; format: functional
Staphylococcus aureus [6] = test: Antibacterial activity against Staphylococcus aureus ATCC25923 assessed as reduction in microbial growth incubated for 22 to 24 hrs by CLSI based broth microdilution method; format: functional; details: time 22-24 hrs
Acinetobacter baumannii [7] = test: Antibacterial activity against Acinetobacter baumannii ATCC17978 assessed as reduction in microbial growth incubated for 22 to 24 hrs by CLSI based broth microdilution method; format: functional; details: time 22-24 hrs
Acinetobacter baumannii [8] = test: Antibacterial activity against Acinetobacter baumannii R28889 assessed as reduction in microbial growth incubated for 22 to 24 hrs by CLSI based broth microdilution method; format: functional; details: time 22-24 hrs
[9] = system: Staphylococcus epidermidis; test: Antibacterial activity against Staphylococcus epidermidis CMCC26069 assessed as reduction in microbial growth incubated for 22 to 24 hrs by CLSI based broth microdilution method; format: functional; details: time 22-24 hrs
Klebsiella pneumoniae = test: Antibacterial activity against Klebsiella pneumoniae ATCC10031 assessed as reduction in microbial growth incubated for 22 to 24 hrs by CLSI based broth microdilution method; format: functional; details: time 22-24 hrs
[10] = system: Staphylococcus epidermidis; test: Antibacterial activity against Staphylococcus epidermidis ATCC12228 assessed as reduction in microbial growth incubated for 22 to 24 hrs by CLSI based broth microdilution method; format: functional; details: time 22-24 hrs
Staphylococcus aureus [11] = test: Antibacterial activity against Staphylococcus aureus ATCC29213 infected in C57BL6 mouse corneal infection model assessed as log reduction in CFU at 5 % administered topically on corneas for four times in 3 days by MHA plate counting method; format: functional; details: time 3 day

Structure (SMILES) | MIC (Staphylococcus aureus [1]) [µg/mL] | MIC (Escherichia coli) [µg/mL] | MIC (Staphylococcus aureus [2]) [µg/mL] | MIC (Staphylococcus aureus [3]) [µg/mL] | HC50 at 1 h [4] [µg/mL] | Ratio (Staphylococcus aureus [5]) | MIC (Staphylococcus aureus [6]) [µg/mL] | MIC (Acinetobacter baumannii [7]) [µg/mL] | MIC (Acinetobacter baumannii [8]) [µg/mL] | MIC [9] [µg/mL] | MIC (Klebsiella pneumoniae) [µg/mL] | MIC [10] [µg/mL] | log(activity) (Staphylococcus aureus [11])
CC(C)Oc1ccc(S(=O)(=O)c2ccc(OCCCCNC(=N)N)cc2)cc1 | 6.25 | 50 | 6.25 | 12.5 | > 200 | – | – | – | – | – | – | – | –
CCOC(=O)COc1ccc(S(=O)(=O)c2ccc(OC/C=C(/C)CCC=C(C)C)cc2)cc1 | > 50 | > 50 | > 50 | > 50 | > 200 | – | – | – | – | – | – | – | –
COC(=O)[C@H](CCCNC(=N)N)NC(=O)COc1ccc(S(=O)(=O)c2ccc(OCC=C(C)C)cc2)cc1 | 12.5 | > 50 | 12.5 | 25 | 200 | – | – | – | – | – | – | – | –
CCn1cc(C(=O)O)c(=O)c2cc(F)c(N3CCNCC3)cc21 [NORFLOXACIN] | – | – | – | – | – | 4 | – | – | – | – | – | – | –
CCNCCCCOc1ccc(S(=O)(=O)c2ccc(OCC=C(C)C)cc2)cc1 | 25 | > 50 | 25 | 25 | 70.8 | – | – | – | – | – | – | – | –
CC(C)=CCOc1ccc(S(=O)(=O)c2ccc(OCCOCCNC(=N)N)cc2)cc1 | 3.12 | 50 | 3.12 | 6.25 | > 200 | – | – | – | – | – | – | – | –
C=CCCCCCOc1ccc(S(=O)(=O)c2ccc(OCCCCNC(=N)N)cc2)cc1 | 0.78 | > 50 | 0.78 | 1.56 | > 200 | – | – | – | – | – | – | – | –
CC(C)=CCOc1ccc(S(=O)(=O)c2ccc(OCCCNC(=N)N)cc2)cc1 | 3.12 | 50 | 3.12 | 6.25 | > 200 | – | – | – | – | – | – | – | –
CC(C)=CCC/C(C)=C\COc1ccc(S(=O)(=O)c2ccc(OCCCCNC(=N)N)cc2)cc1 | 0.78 | > 50 | 0.78 | 1.56 | 144 | – | – | – | – | – | – | – | –
CC(C)=CCOc1ccc(S(=O)(=O)c2ccc(OCCCCNC(=N)N)cc2)cc1 | 1.56 | 12.5 | 3.12 | 3.12 | > 200 | – | 3.12 | 6.25 | 6.25 | 1.56 | 6.25 | 1.56 | –
COC(=O)[C@H](CCCNC(=N)N)NC(=O)[C@H](CCCNC(=N)N)NC(=O)[C@H](CCCNC(=N)N)NC(=O)COc1ccc(S(=O)(=O)c2ccc(OC/C=C(/C)CCC=C(C)C)cc2)cc1 | 0.78 | 6.25 | 0.78 | 0.78 | 165 | – | – | – | – | – | – | – | –
CN[C@H](CC(C)C)C(=O)N[C@H]1C(=O)N[C@@H](CC(N)=O)C(=O)N[C@H]2C(=O)N[C@H]3C(=O)N[C@H](C(=O)N[C@H](C(=O)O)c4cc(O)cc(O)c4-c4cc3ccc4O)[C@H](O)c3ccc(c(Cl)c3)Oc3cc2cc(c3O[C@@H]2O[C@H](CO)[C@@H](O)[C@H](O)[C@H]2O[C@H]2C[C@](C)(N)[C@H](O)[C@H](C)O2)Oc2ccc(cc2Cl)[C@H]1O [VANCOMYCIN] | – | – | – | 0.78 | – | – | 0.78 | – | – | – | – | – | 4.8
CCOC(=O)COc1ccc(S(=O)(=O)c2ccc(OC(C)C)cc2)cc1 | > 50 | > 50 | > 50 | > 50 | > 200 | – | – | – | – | – | – | – | –
C=CCOc1ccc(S(=O)(=O)c2ccc(OCC(=O)OCC)cc2)cc1 | > 50 | > 50 | > 50 | > 50 | > 200 | – | – | – | – | – | – | – | –
